Assay results reported in the SangsterLogP compilation.

test: method code SF-AS, from Bernabe, T.; Forni, F.; Bellei, S.; Cameroni, R. (1980). Partition coefficients of a series of substituted benzoic acids. Atti Soc. Nat. Mat Modena, 111(1)63-72.; details: pH 1.0

Compound	logD
O=C(O)c1cc([N+](=O)[O-])cc([N+](=O)[O-])c1O	1.71
O=C(O)c1cc(I)ccc1O	2.63
O=C(O)c1ccc([N+](=O)[O-])c(O)c1	1.98
COc1ccc(C(=O)O)cc1OC	1.61
O=C(O)c1cc([N+](=O)[O-])c(Cl)c([N+](=O)[O-])c1	2.5
Cc1cccc(C(=O)O)c1O	2.86
O=C(O)c1cc(Cl)ccc1[N+](=O)[O-]	2.13
O=C(O)c1ccc(O)c(Cl)c1	2.41
COc1cccc(C(=O)O)c1O	1.94

Next, values leading:

logD	Compound
1.82	Nc1c(Cl)cc(Cl)cc1C(=O)O
1.85	O=C(O)c1ccc(O)c([N+](=O)[O-])c1
1.91	Nc1cc([N+](=O)[O-])ccc1C(=O)O
2.19	COc1cc(OC)cc(C(=O)O)c1
2.08	O=C(O)c1ccc(Cl)cc1[N+](=O)[O-]
